We go through 24 compounds from patent US8293909B2, “Compounds for the treatment of hepatitis C” (Bristol-Myers Squibb Company, priority 2008, dated 2012).

The subject of one assay is HCV replicon cells. Description: HCV replicon assay (FRET or luciferase readout). It is filed as cell-based. To be noted: Hepatitis C virus, Table 1. The text has this:
FRET Assay Preparation. To perform the HCV FRET screening assay, 96-well cell culture plates were used. The FRET peptide (Anaspec, Inc.) (Taliani et al., Anal. Biochem. 1996, 240, 60-67) contains a fluorescence donor, EDANS, near one end of the peptide and an acceptor, DABCYL, near the other end. The fluorescence of the peptide is quenched by […] resonance energy transfer (RET) between the donor and the acceptor, but as the NS3 protease cleaves the peptide the products are released from RET quenching and the fluorescence of the donor becomes apparent. The assay reagent was made as follows: 5× cell Luciferase cell culture lysis reagent from Promega (#E153A) diluted to 1× with dH2O, NaCl added to 150 mM final, the FRET peptide diluted to 20 μM final from a 2 mM stock.
To prepare plates, HCV replicon cells, with or without a Renilla luciferase reporter gene, were trypsinized and placed into each well of a 96-well plate with titrated test compounds added in columns 3 through 12; columns 1 and 2 contained a control compound (HCV protease inhibitor), and the bottom row contained cells without compound. The plates were then placed in a CO2 incubator at 37° C.
Assays. Subsequent to addition of the test compounds described above (FRET Assay Preparation), at various times the plate was removed and Alamar blue solution (Trek Diagnostics, #00-100) was added per well as a measure of cellular toxicity. After reading in a Cytoflour 4000 instrument (PE Biosystems), plates were rinsed with PBS and then used for FRET assay by the addition of 30 ul of the FRET peptide assay reagent described above (FRET Assay Preparation) per well. The plate was then placed into the Cytoflour 4000 instrument which had been set to 340 excite/490 emission, automatic mode for 20 cycles and the plate read in a kinetic mode. Typically, the signal to noise using an endpoint analysis after the reads was at least three-fold. Alternatively, after Alamar blue reading, plates were rinsed with PBS, 50 ul of DMEM (high glucose) without phenol red was added and plates were then used for luciferase assay using the Promega Dual-Glo Luciferase Assay System.
Compound analysis was determined by quantification of the relative HCV replicon inhibition and the relative cytotoxicity values. To calculate cytoxicity values, the average Alamar Blue fluorescence signals from the control wells were set as 100% non-toxic. The individual signals in each of the compound test wells were then divided by the average control signal and multiplied by 100% to determine […]. To calculate the HCV replicon inhibition values, an average background value was obtained from the two wells containing the highest amount of HCV protease inhibitor at the end of the assay period. These numbers were similar to those obtained from naïve Huh-7 cells.
The background numbers were then subtracted from the average signal obtained from the control wells and this number was used as 100% activity. The individual signals in each of the compound test wells were then divided by the averaged control values after background subtraction and multiplied by 100% to determine percent activity. EC50 values for a protease inhibitor titration were calculated as the concentration which caused a 50% reduction in FRET or luciferase activity. The two numbers generated for the compound plate, percent cytoxicity and percent activity were used to determine compounds of interest for further analysis.
On the technique in general: Replicon systems follow genome replication, usually without infectious particles.

Assay [1] deals with T1, HCV NS5B RdRp genotype 1b (Hepatitis C virus genotype 1b, UniProt Q9WMX2).
T1 construct: The protein was expressed with an 18 amino acid C-terminal truncation to enhance the solubility; made in house; host or cells: E. coli BL21(DE3), pET21a vector
Description: HCV NS5B RdRp enzyme assay (standard / modified). It is filed as biochemical. Conditions: Table 1; HCV NS5B genotype 1b. The procedure:
HCV NS5B RdRp cloning, expression, and purification. The cDNA encoding the NS5B protein of HCV, genotype 1b, was cloned into the pET21a expression vector. The protein was expressed with an 18 amino acid C-terminal truncation to enhance the solubility. The E. coli competent cell line BL21(DE3) was used for expression of the protein. Cultures were grown at 37° C. for ˜4 hours until the cultures reached an optical density of 2.0 at 600 nm. The cultures were cooled to 20° C. and induced with 1 mM IPTG. Fresh ampicillin was added to a final concentration of 50 μg/ml and the cells were grown overnight at 20° C.
Cell pellets (3 L) were lysed for purification to yield 15-24 mgs of purified NS5B. The lysis buffer consisted of 20 mM Tris-HCl, pH 7.4, 500 mM NaCl, 0.5% triton X-100, 1 mM DTT, 1 mM EDTA, 20% glycerol, 0.5 mg/ml lysozyme, 10 mM MgCl2, 15 ug/ml deoxyribonuclease I, and Complete™ protease inhibitor tablets (Roche). After addition of the lysis buffer, frozen cell pellets were resuspended using a tissue homogenizer. To reduce the viscosity of the sample, aliquots of the lysate were sonicated on ice using a microtip attached to a Branson sonicator. The sonicated lysate was centrifuged at 100,000×g for 1 hr at 4° C. and filtered through a 0.2 μm filter unit (Corning).
The protein was purified using three sequential chromatography steps: Heparin sepharose CL-6B, polyU sepharose 4B, and Hitrap SP sepharose (Pharmacia). The chromatography buffers were identical to the lysis buffer but contained no lysozyme, deoxyribonuclease I, MgCl2 or protease inhibitor and the NaCl concentration of the buffer was adjusted according to the requirements for charging the protein onto the column. Each column was eluted with a NaCl gradient which varied in length from 5-50 column volumes depending on the column type. After the final chromatography step, the resulting purity of the enzyme is >90% based on SDS-PAGE analysis. The enzyme was aliquoted and stored at −80° C.
Standard HCV NS5B RdRp enzyme assay. HCV RdRp genotype 1b assays were run in a final volume of 60 μl in 96 well plates (Costar 3912). The assay buffer is composed of 20 mM Hepes, pH 7.5, 2.5 mM KCl, 2.5 mM MgCl2, 1 mM DTT, 1.6 U RNAse inhibitor (Promega N2515), 0.1 mg/ml BSA (Promega R3961), and 2% glycerol. All compounds were serially diluted (3-fold) in DMSO and diluted further in water such that the final concentration of DMSO in the assay was 2%. HCV RdRp genotype 1b enzyme was used at a final concentration of 28 nM. A polyA template was used at 6 nM, and a biotinylated oligo-dT12 primer was used at 180 nM final concentration. Template was obtained commercially (Amersham 27-4110). Biotinylated primer was prepared by Sigma Genosys. 3H-UTP was used at 0.6 μCi (0.29 μM total UTP). Reactions were initiated by the addition of enzyme, incubated at 30° C. for 60 min, and stopped by adding 25 μl of 50 mM EDTA containing SPA beads (4 μg/μl, Amersham RPNQ 0007). Plates were read on a Packard Top Count NXT after >1 hr incubation at room temperature.
Modified HCV NS5B RdRp enzyme assay. A modified enzyme assay was performed essentially as described for the standard enzyme assay except for the following: The biotinylated oligo dT12 primer was precaptured on streptavidin-coated SPA beads by mixing primer and beads in assay buffer and incubating at room temperature for one hour. Unbound primer was removed after centrifugation. The primer-bound beads were resuspended in 20 mM Hepes buffer, pH 7.5 and used in the assay at final concentrations of 20 nM primer and 0.67 μg/μl beads. Order of addition in the assay: enzyme (14 nM) was added to diluted compound followed by the addition of a mixture of template (0.2 nM), 3H-UTP (0.6 μCi, 0.29 μM), and primer-bound beads, to initiate the reaction; concentrations given are final. Reactions were allowed to proceed for 4 hours at 30° C.
IC50 values for compounds were determined using seven different [I]. […]

Structures are written as SMILES.

T1 sequence (Q9WMX2 2420-2992): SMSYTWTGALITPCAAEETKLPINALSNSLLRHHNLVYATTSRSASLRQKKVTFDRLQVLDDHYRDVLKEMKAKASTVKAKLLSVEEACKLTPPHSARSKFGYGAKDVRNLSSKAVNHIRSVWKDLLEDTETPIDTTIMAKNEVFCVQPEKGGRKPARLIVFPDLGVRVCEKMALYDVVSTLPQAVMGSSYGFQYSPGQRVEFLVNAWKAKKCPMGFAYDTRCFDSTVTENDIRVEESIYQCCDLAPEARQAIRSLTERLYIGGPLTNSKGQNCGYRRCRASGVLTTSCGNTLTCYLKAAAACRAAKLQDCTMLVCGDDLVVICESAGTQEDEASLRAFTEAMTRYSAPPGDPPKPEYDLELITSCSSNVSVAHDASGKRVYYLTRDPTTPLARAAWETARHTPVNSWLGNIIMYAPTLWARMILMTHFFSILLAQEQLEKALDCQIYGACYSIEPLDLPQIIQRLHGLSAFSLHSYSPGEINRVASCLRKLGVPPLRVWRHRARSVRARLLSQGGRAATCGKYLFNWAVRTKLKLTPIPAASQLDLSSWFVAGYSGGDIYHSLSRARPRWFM

For orientation: EC50 means the concentration needed to bring the measured effect to its halfway point. Broadly, the IC50 is the point on the concentration scale where inhibition reaches its midpoint. A low value points to greater potency. In the assay with HCV replicon cells, `CNC(=O)c1c(-c2ccccc2)nn2cc(-c3ccccc3C)ccc12` came in with an EC50 of more than 10000 nM. In assay [1], the IC50 was more than 10000 nM.

`CCc1ccccc1-c1ccc2c(C(=O)NC)c(-c3ccccc3)nn2c1` gave an EC50 in the assay with HCV replicon cells of more than 10000 nM. Moreover, the IC50 in assay [1] is more than 10000 nM.

As for `CNC(=O)c1c(-c2ccccc2)nn2cc(-c3ccccc3OC)ccc12`, the EC50 in the assay on HCV replicon cells is 1000 to 10000 nM. Also, the IC50 in assay [1] was in the range of 1000 to 10000 nM.

Turning to `CNC(=O)c1c(-c2ccccc2)nn2cc(-c3ccccc3CO)ccc12`, the EC50 with HCV replicon cells is more than 10000 nM. This compound registered an IC50 in assay [1] of more than 10000 nM.

As for `CNC(=O)c1c(-c2ccccc2)nn2cc(N3CCCCS3(=O)=O)ccc12`, the EC50 in the assay on HCV replicon cells is more than 10000 nM. In addition, the IC50 in assay [1] was more than 10000 nM.

In the assay on HCV replicon cells, `CNC(=O)c1c(-c2ccc(F)cc2)nn2cc(NC(=O)C(C)(C)C)c(C3CC3)cc12` registered an EC50 of more than 10000 nM. This compound also gave an IC50 in assay [1] of more than 10000 nM.

`CNC(=O)c1c(-c2ccc(F)cc2)nn2cccc(NC(=O)OC(C)(C)C)c12` registered an EC50 with HCV replicon cells of more than 10000 nM. Moreover, the IC50 in assay [1] was more than 10000 nM.

Compound `CNC(=O)c1c(-c2ccc(F)cc2)nn2cc(NC(=O)OC(C)(C)C)ccc12` had an EC50 in the assay on HCV replicon cells of more than 10000 nM. In assay [1], the half-maximal inhibitory concentration (IC50) was more than 10000 nM.

Consider `CNC(=O)c1c(-c2ccc(F)cc2)nn2ccc(NC(=O)OC(C)(C)C)cc12`, for which the EC50 in the assay with HCV replicon cells was more than 10000 nM. The same compound had an IC50 in assay [1] of more than 10000 nM.

Turning to `CNC(=O)c1c(-c2ccc(F)cc2)nn2cc(N)ccc12`, in the assay on HCV replicon cells, the EC50 is more than 10000 nM. This compound also displayed an IC50 in assay [1] of more than 10000 nM.

In the case of `CNC(=O)c1c(-c2ccc(F)cc2)nn2ccc(N)cc12`, the EC50 in the assay with HCV replicon cells is more than 10000 nM. For the same compound, in assay [1], the IC50 was more than 10000 nM.

In the case of `CCN(c1cn2nc(-c3ccc(F)cc3)c(C(=O)NC)c2cc1-c1cc(C(=O)NC2(c3ccccn3)CC2)ccc1C)S(C)(=O)=O`, in the assay with HCV replicon cells, the EC50 is 2 to 250 nM. This compound also had an IC50 in assay [1] of 2 to 250 nM.

The compound `CNC(=O)c1c(-c2ccc(F)cc2)nn2ccc(-c3cc(C(=O)NC4(C5CCCCC5)CC4)c(OC)cc3C)c(F)c12` came in with an EC50 in the assay with HCV replicon cells of 2 to 250 nM. This compound came in with an IC50 in assay [1] of 2 to 250 nM.

In the assay with HCV replicon cells, `CNC(=O)c1c(-c2ccc(F)cc2)nn2ccc(-c3cc(C(=O)NC4(C)CC4)c(OC)cc3C)c(F)c12` gave an EC50 of 2 to 250 nM. For the same compound, in assay [1], the IC50 was 2 to 250 nM.

Compound `CNC(=O)c1c(-c2ccc(F)cc2)nn2ccc(-c3cc(C(=O)NC4(c5ccc(F)cc5)CC4)c(OC)cc3C)c(F)c12` gave a concentration for a half-maximal effect (EC50) in the assay with HCV replicon cells of 2 to 250 nM. This compound gave an IC50 in assay [1] of 2 to 250 nM.

In the assay on HCV replicon cells, `CNC(=O)c1c(-c2ccc(F)cc2)nn2ccc(-c3cc(C(=O)NC4(C5CC5)CC4)c(OC)cc3C)c(F)c12` yielded an EC50 of 2 to 250 nM. This compound also gave an IC50 in assay [1] of 2 to 250 nM.

In the assay on HCV replicon cells, `CNC(=O)c1c(-c2ccc(F)cc2)nn2ccc(-c3cc(C(=O)NC4(C(C)C)CC4)c(OC)cc3C)c(F)c12` displayed an EC50 of 2 to 250 nM. Moreover, the IC50 in assay [1] lay within 2 to 250 nM.

`CNC(=O)c1c(-c2ccc(F)cc2)nn2ccc(-c3cc(C(=O)NC4(c5cccc(F)c5)CC4)c(OC)cc3C)c(F)c12` showed an EC50 in the assay with HCV replicon cells of 2 to 250 nM. Further, in assay [1], the IC50 fell in the range of 2 to 250 nM.

In the assay on HCV replicon cells, `CNC(=O)c1c(-c2ccc(F)cc2)nn2ccc(-c3cc(C(=O)NC4(c5ccccc5F)CC4)c(OC)cc3C)c(F)c12` gave an EC50 of 250 to 1000 nM. Besides, in assay [1], the IC50 lay within 2 to 250 nM.

Take `CNC(=O)c1c(-c2ccc(F)cc2)nn2ccc(-c3cc(C(=O)NC4(c5ncccn5)CC4)c(OC)cc3C)c(F)c12`: the EC50 in the assay with HCV replicon cells fell in the range of 2 to 250 nM. In assay [1], this compound returned an IC50 of 2 to 250 nM.

In the case of `CNC(=O)c1c(-c2ccc(F)cc2)nn2ccc(-c3cc(C(=O)NC4(c5ncccn5)CC4)ccc3C)c(F)c12`, in the assay with HCV replicon cells, the EC50 was 2 to 250 nM. In assay [1], this compound returned an IC50 of 2 to 250 nM.

`CCN(c1cn2nc(-c3ccc(F)cc3)c(C(=O)NC)c2cc1-c1cccc(C(=O)NC2(c3ccccn3)CC2)c1)S(C)(=O)=O`: the half-maximal effective concentration (EC50) with HCV replicon cells is 2 to 250 nM. Besides, the IC50 in assay [1] lay within 2 to 250 nM.

As for `CNC(=O)c1c(-c2ccc(F)cc2)oc2ncc(-c3cc(C(=O)NC4(c5ncccn5)CC4)ccc3C)cc12`, the 50% effective concentration (EC50) with HCV replicon cells is 2 to 250 nM. The compound also displayed an IC50 in assay [1] of 2 to 250 nM.

Take `CNC(=O)c1c(-c2ccc(F)cc2)nn2ccc(-c3cc(C(=O)NC4(c5cc(C)on5)CC4)c(OC)cc3C)c(F)c12`: the EC50 in the assay with HCV replicon cells fell in the range of 2 to 250 nM. For the same compound, the IC50 in assay [1] is 2 to 250 nM.
